Laboratory results: patent publication US20230172984A1, “CLEARANCE OF SENESCENT CELLS BY ACTIVATION OF iNKT CELLS” (THE REGENTS OF THE UNIVERSITY OF CALIFORNIA, priority 2020, published 2023)

Key:
[1] = Lynch 2012, Schipper 2012, Ji 2012; cited from earlier work
[2] = Bleomycin lung injury survival study; assay type: in vivo, mouse; conditions: bleomycin 4 U/kg intratracheal, α-GalCer or vehicle at day 5, vs vehicle-injected mice; FIG. 4E
Excerpt: Bleomycin lung injury. For measurement of lung collagen, 3 U/kg Bleomycin was instilled intratracheally, with injection of α-GalCer or vehicle at day 10, followed by lung harvest for hydroxyproline assay at 20 days. For the survival study, 4 U/kg Bleomycin was instilled intratracheally, with injection of α-GalCer or vehicle at day 5.

[3] = tested on: senescent preadipocytes (C12FDG^Hi) in eWAT of HFD mice; assay: C12FDG flow cytometry assay (SA-βgal activity) on eWAT SVF of HFD mice; assay type: in vivo, mouse
Experimental: MATERIALS AND METHODS. Mouse husbandry. All procedures involving mice were performed according to the IACUC standards following ethics approval by the animal committee at the University of California, San Francisco. Male C57BL6/J on chow or HFD fed mice. HFD mice were fed a high-fat diet (60% kcal from fat) from 6 weeks until 22 weeks of age. All experiments on HFD mice were performed at 22-24 weeks total age (16-18 weeks on HFD). Age-matched male C57BL6/J mice on standard rodent chow diet were used as controls. For the lung injury model, 10-week-old male C57BL/6J mice were used. The animals were divided into three groups: the control group, the injured group, and the α-GalCer treated group. The animals in the control group received vehicle only (i.p.) on day 10. The injured group animals received bleomycin (3 U/kg) via the intratracheal route at the start of the experiment (day 0). The animals in the α-GalCer treated groups received bleomycin (3 U/kg) on day 0, and i.p. injection of α-GalCer (2 μg/mouse) on day 10. The animals in all the groups were sacrificed on day 14, and lungs were harvested for isolation of primary pulmonary Alveolar Type II cells (ATII) on the same day. For the hydroxyproline assay, mice were euthanized 21 days after injury.
Epidydmal white adipose tissue stromal vascular fraction (eWAT SVF) isolation. eWAT SVF was isolated using standard protocols. Briefly, mice were euthanized, and epididymal fat pads were harvested, washed twice in D-PBS and minced. eWAT pads were digested with 1 U/ml Collagenase-D (Roche) in 1×HBSS containing 1% BSA (Sigma-Aldrich) for 1 hr at 37° C. Digested fat tissue was then strained twice through 100 μm strainers and neutralized with 30 ml of complete culture media (DMEM-F12 1:1, 10% FBS, 1×Penicillin-streptomycin). Samples were spun at 500 g for 5 minutes, shaken to resuspend the SVF pellet and then spun again. The resulting SVF pellet containing blood cells was lysed with ACKS buffer, washed in D-PBS and spun down. Total live SVF cells were counted using trypan blue and then used for various assays.
C12FDG flow cytometry assay. eWAT SVF cells isolated and counted as described above were adjusted to 3×10^6 cells/ml in complete culture media and incubated with 33 μM C12FDG for 1 hr in a 37° C. water bath. Cells were then spun down at 500 g for 5 minutes, washed with Cell Staining buffer, and stained with anti-CD45-APC (clone 30F-11) and anti-CD31-PE-Cy7 (clone 390) each at a 1:200 dilution on ice for 30 minutes. Cells were then washed in Cell Staining buffer and resuspended in Cell Staining buffer containing 1×7-AAD. Samples were analyzed on an Attune acoustic focusing cytometer. Gates were set as follows: cells (FSC-A/SSC-A), forward scatter singlets (FSC-H/FSC-A), side-scatter singlets (SSC-H/SSC-A), live cells (7-AAD^−), non-immune cells (CD45^−), non-endothelial cells (CD31^−) and analyzed for C12FDG fluorescence. […] Data were analyzed with FlowJo (v. 10). For Lung, 1×10^6 cells from each sample were used to perform the assay. The cells were incubated with 66 μm of C12FDG in sterile DMEM containing DNase for 1 hour at 37° C. Following the incubation, the cells were washed with cell staining buffer, blocked with anti CD16/32 mouse monoclonal antibody (1:1000, prepared by the UCSF monoclonal antibody core), and stained with APC anti-mouse CD45 (1:400), and 7-AAD (1:1000). The gating strategy followed selected 7-AAD^−, CD45^−, and C12FDG^+ cells. […]

## CCCCCCCCCCCCCCCCCCCCCCCCCC(=O)N[C@@H](CO[C@H]1O[C@H](CO)[C@H](O)[C@H](O)[C@H]1O)[C@H](O)[C@H](O)CCCCCCCCCCCCCC [GalCer, alpha-Galactosylceramide]
[1]
  metabolic phenotypes in the HFD mouse model (literature): reverse adverse metabolic phenotypes
[2]
  mortality (Kaplan Meier survival): significantly reduced
[3]; HFD fed Traj18^−/− mice (lack invariant TCR chain) injected with GalCer
  senescent cells (C12FDG+ SVF cells), Traj18^−/− HFD mice: failed to reduce senescent cells in Traj18^−/− mice
[3]; HFD fed WT mice injected with GalCer
  senescent cells (C12FDG+ SVF cells), WT HFD mice: reduction of senescent cells in WT HFD mice
[3]; HFD mice injected with GalCer (2 μg i.p.) vs vehicle, FIG. 3A
  number of C12FDG^Hi preadipocytes in eWAT: deplete the number of these C12FDG^Hi cells to levels akin to those seen in lean control mice
